Consider 3 compounds from article PMC11079024, “Identification of a family of species-selective complex I inhibitors as potential anthelmintics” (Nature Communications, 2024).

Read-outs that look alike come from different tables or passages of the source.

One data set has as its system H. polygyrus. The conditions noted are these: cited from earlier work.
The test system of a further data set is adult H. polygyrus. The data set can be described thus: microbe, parasite or virus in culture. The data set is classed as cell-based, Heligmosomoides polygyrus. The protocol: To investigate the impact of the eleven benzimidazole derivatives under anaerobic conditions, an anaerobic chamber with an integrated incubator (Coy Laboratory Products, USA) was used. The same procedure was followed as described for the aerobic drug screening in adult H. polygyrus, but the incubation took place within the anaerobic chamber (37 °C, 85% N2, 10% CO2, 5% H2). Benzimidazole derivatives were tested at a concentration of 10 µM. For scoring, the plates had to be removed from the anaerobic chamber. The whole experiment was performed two times i.e., two independent biological replicates.
The activities of eleven benzimidazole derivatives were tested against adult H. polygyrus viability in vitro under aerobic (+, white boxplots) and anaerobic (–, coloured boxplots) conditions (see Methods). After 24-hour chemical treatment, worm viability was manually scored by an examiner using a scale from 0 (dead) to 3 (motile); DMSO was used as a negative control in both aerobic and anaerobic conditions; levamisole was used as a positive control in anaerobic conditions. The percentage of affected worms (i.e., worms with a score equal to or lower than 1.5) in each biological replicate is shown; data are from two biological replicates. Within each boxplot, black horizontal lines denote group medians, boxes span from the 25th to the 75th percentile of each group’s distribution, and whiskers extend to the maximum and minimum values. […]

A short description of a further data set: in vitro. The conditions noted are these: human.
The test system of the next data set is HEK293 cells. The conditions noted are these: human, 2 days, 6.3 µM.
The subject of another data set is C. elegans. The data set can be described thus: C. elegans chemical screens of RIKEN NPD libraries at 50 μM (hit identification in KCN survival and development/viability assays). It counts as cell-based, Caenorhabditis elegans. As to conditions: screened at 50 μM in triplicate; hit = modified z-score < −3; KCN = KCN survival assay, Dev. & Viability = development/viability assay.

A further data set deals with L1 wild-type C. elegans. The data set can be described thus: whole plant or invertebrate. As to conditions: Caenorhabditis elegans, 15 h, read-out: C. elegans KCN Survival Assay LC50.

Take `c1ccc([C@H]2CN3CCSC3=N2)cc1` [levamisole, reference compound]: the “reduction in H. polygyrus worm burden” value in the data set on H. polygyrus (mouse, in vivo, 1.25 mg/kg) is given as 62%. Further, the “# of Worms Affected” value in the data set with adult H. polygyrus amounted to 12. In addition, the killing at 10 µM in the data set with adult H. polygyrus (Heligmosomoides polygyrus, 24 h, read-out: Percent Worms Affected) is 100%.

In general, CC50 refers to the concentration giving 50% cytotoxicity. A low value points to harm at low concentration. One may read the viability as a per cent measure of how many cells are alive, often set against a control. Low readings indicate a greater loss of cells, high ones better survival. What is called LC50 is the concentration that kills 50% of the test population. The compound `Fc1ccc(C(c2ccc(F)cc2)N2CCN(C/C=C/c3ccccc3)CC2)cc1` [Flunarizine] displayed a CC50 at 2 days in the data set “in vitro” (HEK293 Cell Viability Assay LC50) of 30.2 µM. In addition, in “in vitro” (HEK293 viability), the viability turned out to be 92.6%; the viability at 2 days, 0.4 µM came out at 88.1%; the viability at 2 days, 0.8 µM came out at 81.5%; the viability at 2 days, 6.3 µM is 100%. For the same compound, in “in vitro” (HEK293 viability), the viability at 2 days, 12.5 µM came to 99.4% and the viability at 2 days, 50 µM is 17.1%. The same compound showed an HEK293 viability with HEK293 cells of 1.000. The “Hit Type” value with C. elegans was “KCN”. For the same compound, in the data set on L1 wild-type C. elegans, the LC50 turned out to be 22 µM.

Take `CO/N=C1\C[C@]2(C[C@@H]3C[C@@H](C/C=C(\C)C[C@@H](C)/C=C/C=C4\CO[C@@H]5[C@H](O)C(C)=C[C@@H](C(=O)O3)[C@]45O)O2)O[C@H](/C(C)=C/C(C)C)[C@H]1C` [moxidectin]: the “reduction in H. polygyrus worm burden” value in the data set with H. polygyrus (single dose 1 mg/kg, mice) is 99%.
